Assay [1] has as its system c-GMP in slices of thoracic aorta of rats. The assay can be described thus: Cyclic-GMP measurement in aortic rat tissue (radioimmunoassay). Type of assay: cell-based. The conditions noted are these: for accumulation of cyclic-GMP as compared with GTN: isolated rat aorta, radioimmunoassay; for cGMP Post-infusion: post-infusion (repeated treatment). On the procedure:
GTN (10^−6 M) was added to the chamber and, 1 minute after exposure to the drug, rings (usually 3-5) were taken, wrapped with aluminum foil and immediately frozen in liquid nitrogen for storage. Control sample group was treated with the vehicle solution only. At the time of analysis, rings were thawed, blotted over a dry gauzed and weighted. A known weight of tissue was homogenized in 2 ml ice-cold modified Hank's balanced salt solution containing (in gram/liter) NaCl 8; KCl 0.4; glucose 1; KH2PO4 0.06; Na2HPO4 0.047; Phenol red 0.017 and further containing 25 mM EDTA (disodium salt). The homogenate was centrifuged at 4000 g (force units) for 10 minutes at 2-4° C. and the supernatant was thereafter transferred into fresh pre-cooled test tube containing 1 ml of acetonitrile. The tubes were vortex mixed for a few seconds and subsequently centrifuged at 4000 g for 5 minutes at 2-4° C., to remove the precipitated protein. Each supernatant was transferred into a clean test tube and evaporated to dryness under a stream of nitrogen at 55° C. The dry residue was reconstituted with 10 volumes of Tris-EDTA buffer pH 7.5 (0.05 M Tris containing 4 mM EDTA). Aliquots of 100 μl of the reconstituted solution in duplicate were used for c-GMP measurements using Amersham RIA kit, as is described in Haj-Yehia & Benet [Pharmacology, 1995, 273, 1, pp. 94-100]. Standard curves were plotted with six concentrations (0, 0.5, 1, 2, 4 and 8 pmoles of c-GMP per tube).
The NO-tolerance effect of GTN and NO-donor compounds according to the present invention was measured by following the production of c-GMP in slices of thoracic aorta of rats. Thus, the production of c-GMP was measured as described in the methods section above for the reference NO-donor compound GTN, and for the NO-donors of the present invention Pet-2, Pet-3, Pet-7, Pet-8, Pet-10, Pet-12, Pet-24, Pet-59, Pet-106, Pet-107, Pet-120, Pet-147, Pet-149, Pet-152, Pet-154 and Pet-155.

The subject of another assay is isolated rat aorta. The assay can be described thus: In vitro induction of tolerance to NO releasing compounds (vasorelaxation of pre-exposed aortic rings). Type of assay: cell-based. The conditions noted are these: rings pre-treated with epinephrine and then with 0.44 mM of the same compound. On the procedure:
Aortic rings were prepared as described hereinabove, and were exposed to 0.44 mM GTN (vehicle was water:ethanol:propyleneglycol at proportional ratio of 1:1:1) for 1 hour before CCRC construction, to thereby induce tolerance to nitroglycerine. At the end of the tolerance induction period, rings were thrice washed with the path buffer (Krebs-bicrbonate) every 15 minutes for the following hour and then CCRC for vasorelaxation on GTN-induced tolerance rings were constructed for GTN (pretreated versus untreated rings, FIG. 15), in order to verify the ability to induce and measure GTN tolerance induction in vitro
Attempted induction of tolerance to the NO-donating compounds of the present invention was performed under the same conditions as for GTN. Thus, in an exemplary experiment, rings were exposed to 0.44 mM solution of Pet-3 in the attempt to induce tolerance for Pet-3. CCRC were then measured for the vasorelaxing effect of Pet-3 on a group of rings which were pre-exposed to Pet-3 as to induce tolerance to Pet-3, and for an untreated control group. The above protocol was repeated with Pet-2, Pet-7, Pet-8, Pet-12, Pet-24, Pet-43, Pet-149 and Pet-152.

Assay [2] concerns cyclic-GMP in isolated aorta of rats. In words: Induction of in vivo nitrate tolerance (cGMP in isolated aorta of rats pre-treated in vivo). As to conditions: rats pre-treated in vivo with the same compound. More on the design: species or system rat. On the procedure: For c-GMP levels and tolerance development, the rat's thoracic aorta was isolated after exposure to the tested compound in vivo, and measured as described above in the in vitro assays.
Male Sprague Dawley rats (220 to 250 grams) were housed under constant temperature and humidity conditions. Light was maintained at a 12/12 light dark cycle. Except for 12 hours before the experiment, when food fasting was initiated, all rats had free access to standard rat pellet diet and tap water. The animals were anesthetized by intraperitoneal injection of ketamine and xylazine combination (50 and 10 milligram per kilogram, respectively). […] The catheters were filled with normal saline solution containing 1000 IU/ml of heparin and plugged with a metal pin. Catheters were externalized to the back of the neck region and secured by a polyester felt disk.
After implantation, the rats were individually housed until they regained their preoperative weight and appeared healthy (3 to 4 days post-operation). At this time point (day 0), an osmotic mini-pump (Alza Corp., Palo Alto, Calif.) delivering constant volume (10 μl/hour) of vehicle or drug was connected to one of the intravenous catheters.
For inducing tolerance to the tested NO-donor according to the present invention, the animals received 200 μg/hour of the tested compound for 16 hours (short-term-induced tolerance). A similar number of animals were processed by the same surgical procedure and received the vehicle alone (10 μl/hour of a solution consisting of 30% ethanol and 30% propylene glycol in sterile distilled water for injection).
At the end of the infusion periods used for the development of tolerance (16 hour), the rats were anesthetized as described above, the two catheters were externalized and the delivering catheters were disconnected from the mini-pump. The abdomen was opened by midline incision and the thoracic aorta were isolated, washed and cleaned from the surrounding tissues. […]

The test system of assay [3] is hypertensive Sprague-Dawley male rats. In words: Hypotensive effects: mean arterial pressure during intravenous bolus doses. Type of assay: in vivo, rat. As to conditions: for activity as hypotensive agents (MAP): rats given phenylephrine. On the procedure: Mean arterial pressure (MAP) was monitored and determined during bolus infusion of Pet-2, Pet-3, Pet-7, Pet-8, Pet-12 and Pet-13. Briefly, polyethylene catheters (PE50) were inserted into the carotid artery and into the jugular vein of anesthetized hypertensive Sprague-Dawley male rats (200-300 grams). A blood pressure recorder was placed within the carotid artery. Phenylephrine (0.1 mg) was then injected and the mean arterial blood pressure (MABP) was monitored continuously until a stable baseline was reached. The hypotensive effects of intravenous (iv) bolus doses (0.1 mg of each tested compound) administered intravenously at the jugular vein in minimal volume of vehicle (0.2 ml per dose) were evaluated. Five minutes were allowed between each dose, during which the maximal decrease in MAP was recorded and a dose-response graph comparing the hypotensive effect of the compounds was constructed.

“Also recorded” adds a separate entry of the source.

On to `C=CCNc1nc(C)c(CCO[N+](=O)[O-])s1` [Pet-155, allyl-[4-methyl-5-(2-nitrooxy-ethyl)-thiazol-2-yl]-amine], for which the “accumulation of cyclic-GMP as compared with GTN” value (“accumulation … compared with GTN” below) in assay [1] was “increased levels of cGMP”.

On to `Cc1nc(NC(=O)[C@@H](C)c2ccc(CC(C)C)cc2)sc1CCO[N+](=O)[O-]` (stereo in doubt) [Pet-152, 2-(4-Isobutyl-phenyl)-N-[4-methyl-5-(2-nitrooxy-ethyl)-thiazol-2-yl]-propionamide], for which the “accumulation … compared with GTN” value in assay [1] is “increased levels of cGMP”. Regarding `O=[N+]([O-])OCC(CO[N+](=O)[O-])O[N+](=O)[O-]` [GTN, glyceryl trinitrate, reference compound], the “tolerance induction in vitro (vasorelaxation, pre-treated versus control rings)” value in the assay with isolated rat aorta is “tolerance inducement caused by treatment with GTN; also recorded: causing the emergence of tolerance; also recorded: tolerance induced by treatment with GTN”. The “c-GMP level following a repeated treatment” value in assay [1] (rat thoracic aorta) was “significantly reduced”. In assay [2], the “tolerance induction by cyclic-GMP accumulation in aorta of rats pre-treated in vivo” value is “tolerance inducing effect; also recorded: decreased”. Besides, the “hypotensive effect on MAP following successive administrations” value in assay [3] (successive doses) is listed as “attenuation in its effect on MAP”. Consider `Cc1nc(C)c(CCO[N+](=O)[O-])s1` [Pet-3, 2,4-Dimethyl-5-(2-nitrooxy-ethyl)-thiazole], for which the “tolerance induction in vitro (vasorelaxation, pre-treated versus control rings)” value in the assay with isolated rat aorta is recorded as “absence of tolerance induction”. Also, the “accumulation … compared with GTN” value in assay [1] is reported as “increased levels of cGMP”. In addition, in assay [3], the “activity as hypotensive agents (MAP)” value is “high activity”.

In the case of `CCNc1nc(C)c(CCO[N+](=O)[O-])s1` [Pet-147, Ethyl-[4-methyl-5-(2-nitrooxy-ethyl)-thiazol-2-yl]-amine], the “accumulation … compared with GTN” value in assay [1] was “increased levels of cGMP”.

`Cc1nc(N(C)C)sc1CCO[N+](=O)[O-]` [Pet-7, Dimethyl-[4-methyl-5-(2-nitrooxy-ethyl)-thiazol-2-yl]-amine]: the “tolerance induction in vitro (vasorelaxation, pre-treated versus control rings)” value in the assay with isolated rat aorta is reported as “absence of tolerance induction”. In addition, in assay [1], the “accumulation … compared with GTN” value is “increased levels of cGMP”. Further, in assay [3], the “activity as hypotensive agents (MAP)” value is “high activity”. On to `Cc1nc(CCCCc2nc(C)c(CCO[N+](=O)[O-])s2)sc1CCO[N+](=O)[O-]` [Pet-13], for which, in assay [3], the “activity as hypotensive agents (MAP)” value was “high activity”. On to `Cc1nc(-c2ccc(N)cc2)sc1CCO[N+](=O)[O-]` [Pet-106, 4-[4-Methyl-5-(2-nitrooxy-ethyl)-thiazol-2-yl]-phenylamine], for which the “tolerance induction in vitro (vasorelaxation, pre-treated versus control rings)” value with isolated rat aorta is on record as “absence of tolerance induction”. For the same compound, the “accumulation … compared with GTN” value in assay [1] is recorded as “increased levels of cGMP”. Besides, the “cGMP Post-infusion” value in assay [1] (rat thoracic aorta) was 120 ± 12 pmol/g tissue.

As to `Cc1nc(Nc2cccc3ccccc23)sc1CCO[N+](=O)[O-]` [Pet-149, [4-Methyl-5-(2-nitrooxy-ethyl)-thiazol-2-yl]-naphthalen-1-yl-amine], in the assay on isolated rat aorta, the “tolerance induction in vitro (vasorelaxation, pre-treated versus control rings)” value is “absence of tolerance induction”. Besides, in assay [1], the “accumulation … compared with GTN” value is recorded as “increased levels of cGMP”. Regarding `CC(=O)Nc1ccc(-c2nc(C)c(CCO[N+](=O)[O-])s2)cc1` [Pet-107, N-{4-[4-Methyl-5-(2-nitrooxy-ethyl)-thiazol-2-yl]-phenyl}-acetamide], in the assay on isolated rat aorta, the “tolerance induction in vitro (vasorelaxation, pre-treated versus control rings)” value was “absence of tolerance induction”. The “accumulation … compared with GTN” value in assay [1] was “increased levels of cGMP”. Also, the “cGMP Post-infusion” value in assay [1] (rat thoracic aorta) is on record as 125 ± 10 pmol/g tissue. On to `Cc1nc(N)sc1CCO[N+](=O)[O-]` [Pet-10, 4-methyl-5-(2-nitrooxy-ethyl)-thiazole-2-ylamine], for which the “accumulation … compared with GTN” value in assay [1] is recorded as “increased levels of cGMP”. For the compound `CNc1cncc(-c2nc(C)c(CCO[N+](=O)[O-])s2)n1` [Pet-24, Methyl-{6-[4-methyl-5-(2-nitrooxy-ethyl)-thiazol-2-yl]-pyrazin-2-yl}-amine], the “tolerance induction in vitro (vasorelaxation, pre-treated versus control rings)” value in the assay with isolated rat aorta is listed as “absence of tolerance induction”. In assay [1], the “accumulation … compared with GTN” value is on record as “increased levels of cGMP”. On to `Cc1nc(-c2ccc(C(F)(F)F)cc2)sc1CCO[N+](=O)[O-]` [Pet-59, 4-Methyl-5-(2-nitrooxy-ethyl)-2-(4-trifluoromethyl-phenyl)-thiazole], for which, in assay [1], the “accumulation … compared with GTN” value is given as “increased levels of cGMP”. In the case of `Cc1nc(NC(=O)c2cccnc2)sc1CCO[N+](=O)[O-]` [Pet-154, N-[4-methyl-5-(2-nitrooxy-ethyl)-thiazol-2-yl]-nicotinamide], in assay [1], the “accumulation … compared with GTN” value was “increased levels of cGMP”. As for `Cc1nc(-c2ccccc2)sc1CCO[N+](=O)[O-]` [Pet-8, 4-Methyl-5-(2-nitrooxy-ethyl)-2-phenyl-thiazole], the “accumulation … compared with GTN” value in assay [1] was “increased levels of cGMP”. The “activity as hypotensive agents (MAP)” value in assay [3] is given as “high activity”. For `Cc1nc(Nc2nc(C)c(CCO[N+](=O)[O-])s2)sc1CCO[N+](=O)[O-]` [Pet-43, Bis-[4-methyl-5-(2-nitrooxy-ethyl)-thiazol-2-yl]-amine], the “tolerance induction in vitro (vasorelaxation, pre-treated versus control rings)” value in the assay on isolated rat aorta was “absence of tolerance induction”.

The record behind these values is US8134010B2, “Thiazole-based nitric oxide donors having aryl substituent(s) and uses thereof” (priority 2004, dated 2012).
